Test results reported in US20060052288A1, “Pharmaceutical composition for inhibiting the metastasis or preventing the recurrence of malignant tumor” (priority 2001, published 2006).

Tests used:
[1] = tested on: HT-29 cells (human colon cancer); experiment: HT-29 metastatic models, dosing after lymph node metastasis observed (Experiment 3); assay type: in vivo; conditions: 10 animals, checked day 84; for Other organs MI (Metastatic Incidence): Diaphragm, Abdominal cavity, Thoracic cavity; for Liver MI (Metastatic Incidence) / Lung MI (Metastatic Incidence) / Lymph node MI (Metastatic Incidence) / Number of animals with metastasis: NCr nu/nu mice
Protocol: Experiment 3 (HT-29 Metastatic Models)
A segment (2 mm^2) of HT-29 cells (human colon cancer) was implanted into the vermiform appendix of 100 NCr nu/nu female mice (5 to 6 weeks old, 10 animals per group). Since the lymph node metastasis was observed on the 49th day after the implantation of tumor, a test compound (Compound A; the compound obtained in Preparation 1 as mentioned below, and Irinotechan (CPT-11)) was dissolved in a physiological saline solution, and each amount as indicated in Table 3 as mentioned below was administered intravenously to the mice on the 51st, 55th, 59th, and 63rd day after the implantation of tumor. On the other hand, in the control group (untreated with test compound), only a physiological saline solution was administered. The presence or absence of the metastasis of each organ was checked on the 84th day after the implantation of tumor.

[2] = tested on: M 5076 cells (mouse ovarian sarcoma cells); experiment: M 5076 liver metastatic models (survival); assay type: in vivo; conditions: for Prolongation rate of survival (%) / Survival days: BDF1 male mice; for Prolongation rate of survival (%): vs control; for Survival days: observed 120 days
Protocol: Experiment 1 (M 5076 Liver Metastatic Models)
One million of M 5076 cells (mouse ovarian sarcoma cells) were implanted into BDF1 male mice (5-weeks old, 8 animals per group) at the tail vein. […] In the control group (untreated with test compound), only a physiological saline solution was administered. The survival time (days) was measured in both the test compound-treated groups and the control group, and the prolongation rate of survival was calculated according to the following equation.

[3] = tested on: HT-29 cells (human colon cancer); experiment: HT-29 metastatic models, dosing from day 15 (Experiment 2); assay type: in vivo, mouse; conditions: 10 animals, checked day 84; for Other organs MI (Metastatic Incidence): Diaphragm, Abdominal cavity, Thoracic cavity; for Liver MI (Metastatic Incidence) / Lung MI (Metastatic Incidence) / Lymph node MI (Metastatic Incidence) / Number of animals with metastasis: NCr nu/nu mice
Protocol: A test compound (Compound A; the compound obtained in Preparation 1 as mentioned below, Compound B; the compound obtained in Preparation 4 as mentioned below, and Irinotechan (CPT-11)) was dissolved in a physiological saline solution, and each amount as indicated in Table 2 as mentioned below was administered intravenously to the mice on the 15th, 19th, 23rd and 25th day after the implantation of tumor. On the other hand, in the control group (untreated with test compound), only a physiological saline solution was administered. The presence or absence of the metastasis of each organ was checked on the 84th day after the implantation of tumor.

[4] = tested on: H460 cells (human lung cancer); experiment: H460 metastatic models (Experiment 4); assay type: in vivo, mouse xenograft; design: key to Lymph node MI (Metastatic Incidence) / Liver MI (Metastatic Incidence) / Lung MI (Metastatic Incidence): number of animals with metastasis in the organ (out of 10); conditions: NCr nu/nu mice, 10 animals, checked day 36
Protocol: Experiment 4 (H460 Metastatic Models)
A segment (2 mm^2) of H460 cells (human lung cancer) was implanted into the left lung of 100 NCr nu/nu female mice (5 to 6 weeks old, 10 animals per group). […] On the other hand, in the control group (untreated with test compound), only a physiological saline solution was administered. The presence or absence of the metastasis of each organ was checked on the 36th day after the implantation of tumor.

[5] = 20 mg/kg i.v. days 51, 55, 59, 63
[6] = 40 mg/kg i.v. days 51, 55, 59, 63
[7] = 5 mg/kg i.v. days 15, 19, 23, 25
[8] = 10 mg/kg i.v. days 15, 19, 23, 25
[9] = 20 mg/kg i.v. days 15, 19, 23, 25
[10] = 40 mg/kg i.v. days 15, 19, 23, 25
[11] = 5 mg/kg i.v. days 14, 18, 22, 26
[12] = 10 mg/kg i.v. days 14, 18, 22, 26
[13] = 20 mg/kg i.v. days 14, 18, 22, 26
[14] = 40 mg/kg i.v. days 14, 18, 22, 26
[15] = 80 mg/kg i.v. days 14, 18, 22, 26
[16] = 2.5 mg/kg i.v. days 15, 19, 23, 25
[17] = 2.5 mg/kg i.v. days 14, 18, 22, 26

“CM-dextran-7-ethyl-10-[3′-(glycyl-glycyl-glycylamino)propyloxy]-(20S)-camptothecin [Compound A]” was tested, and the “Other organs MI (Metastatic Incidence)” value [1, 5] was 1, the “Other organs MI (Metastatic Incidence)” value [1, 6] was 2 and the “Liver MI (Metastatic Incidence)” value [1, 5] was 0. The “Lung MI (Metastatic Incidence)” value [1, 5] was 0, the “Lymph node MI (Metastatic Incidence)” value [1, 5] was 2 and the “Number of animals with metastasis” value [1, 5] was 3. For the same compound, the “Liver MI (Metastatic Incidence)” value [1, 6] was 0, the “Lung MI (Metastatic Incidence)” value [1, 6] was 0 and the “Lymph node MI (Metastatic Incidence)” value [1, 6] was 0. For the same compound, the “Number of animals with metastasis” value [1, 6] was 2, the “Prolongation rate of survival (%)” value ([2]; 12.5 mg/kg i.v. on days 4, 8, 12) was 150.5% and the Survival days ([2]; 12.5 mg/kg i.v. on days 4, 8, 12 after implantation) was 37.57 days. For the same compound, the “Prolongation rate of survival (%)” value ([2]; 25 mg/kg i.v. on days 4, 8, 12) was 187.5%, the Survival days ([2]; 25 mg/kg i.v. on days 4, 8, 12 after implantation) was 43.13 days and the “Prolongation rate of survival (%)” value ([2]; 50 mg/kg i.v. on days 4, 8, 12) was 224.8%. The Survival days ([2]; 50 mg/kg i.v. on days 4, 8, 12 after implantation) was 48.71 days, the “activity of prolonging lifetime” value ([2]; M5076 liver metastatic models, summary in words) was “excellent activity of prolonging lifetime” and the “Other organs MI (Metastatic Incidence)” value [3, 7] was 2. For the same compound, the “Other organs MI (Metastatic Incidence)” value [3, 8] was 0, the “Other organs MI (Metastatic Incidence)” value [3, 9] was 0 and the “Other organs MI (Metastatic Incidence)” value [3, 10] was 0. The “Liver MI (Metastatic Incidence)” value [3, 7] was 0, the “Lung MI (Metastatic Incidence)” value [3, 7] was 1 and the “Lymph node MI (Metastatic Incidence)” value [3, 7] was 6. The “Number of animals with metastasis” value [3, 7] was 6, the “Liver MI (Metastatic Incidence)” value [3, 8] was 0 and the “Lung MI (Metastatic Incidence)” value [3, 8] was 2. The “Lymph node MI (Metastatic Incidence)” value [3, 8] was 8, the “Number of animals with metastasis” value [3, 8] was 8 and the “Liver MI (Metastatic Incidence)” value [3, 9] was 0. The “Lung MI (Metastatic Incidence)” value [3, 9] was 1, the “Lymph node MI (Metastatic Incidence)” value [3, 9] was 1 and the “Number of animals with metastasis” value [3, 9] was 2. For the same compound, the “Liver MI (Metastatic Incidence)” value [3, 10] was 0, the “Lung MI (Metastatic Incidence)” value [3, 10] was 0 and the “Lymph node MI (Metastatic Incidence)” value [3, 10] was 0. The “Number of animals with metastasis” value [3, 10] was 0, the “Liver MI (Metastatic Incidence)” value [4, 11] was 0 and the “Lung MI (Metastatic Incidence)” value [4, 11] was 1. For the same compound, the “Lymph node MI (Metastatic Incidence)” value [4, 11] was 2, the “Number of animals with metastasis” value [4, 11] was 2 and the “Liver MI (Metastatic Incidence)” value [4, 12] was 0. The “Lung MI (Metastatic Incidence)” value [4, 12] was 0, the “Lymph node MI (Metastatic Incidence)” value [4, 12] was 1 and the “Number of animals with metastasis” value [4, 12] was 1. For the same compound, the “Liver MI (Metastatic Incidence)” value [4, 13] was 0, the “Lung MI (Metastatic Incidence)” value [4, 13] was 2 and the “Lymph node MI (Metastatic Incidence)” value [4, 13] was 2. The “Number of animals with metastasis” value [4, 13] was 3, the “Liver MI (Metastatic Incidence)” value [4, 14] was 0 and the “Lung MI (Metastatic Incidence)” value [4, 14] was 0. For the same compound, the “Lymph node MI (Metastatic Incidence)” value [4, 14] was 1 and the “Number of animals with metastasis” value [4, 14] was 1.
For `CCc1c2c(nc3ccc(OC(=O)N4CCC(N5CCCCC5)CC4)cc13)-c1cc3c(c(=O)n1C2)COC(=O)[C@]3(O)CC` [Irinotecan, reference compound], the “Other organs MI (Metastatic Incidence)” value [1, 6] was 1, the “Liver MI (Metastatic Incidence)” value [1, 6] was 1 and the “Lung MI (Metastatic Incidence)” value [1, 6] was 0. The “Lymph node MI (Metastatic Incidence)” value [1, 6] was 8, the “Number of animals with metastasis” value [1, 6] was 8 and the “Prolongation rate of survival (%)” value ([2]; 80 mg/kg i.v. on days 4, 8, 12) was 50.0%. For the same compound, the Survival days ([2]; 80 mg/kg i.v. on days 4, 8, 12 after implantation) was 22.50 days, the “Other organs MI (Metastatic Incidence)” value [3, 9] was 0 and the “Other organs MI (Metastatic Incidence)” value [3, 10] was 1. The “Liver MI (Metastatic Incidence)” value [3, 9] was 2, the “Lung MI (Metastatic Incidence)” value [3, 9] was 2 and the “Lymph node MI (Metastatic Incidence)” value [3, 9] was 9. For the same compound, the “Number of animals with metastasis” value [3, 9] was 9, the “Liver MI (Metastatic Incidence)” value [3, 10] was 0 and the “Lung MI (Metastatic Incidence)” value [3, 10] was 1. For the same compound, the “Lymph node MI (Metastatic Incidence)” value [3, 10] was 7, the “Number of animals with metastasis” value [3, 10] was 7 and the “Liver MI (Metastatic Incidence)” value [4, 14] was 0. The “Lung MI (Metastatic Incidence)” value [4, 14] was 1, the “Lymph node MI (Metastatic Incidence)” value [4, 14] was 0 and the “Number of animals with metastasis” value [4, 14] was 1. For the same compound, the “Liver MI (Metastatic Incidence)” value [4, 15] was 0, the “Lung MI (Metastatic Incidence)” value [4, 15] was 0 and the “Lymph node MI (Metastatic Incidence)” value [4, 15] was 2. The “Number of animals with metastasis” value [4, 15] was 2.
For “carboxymethyldextran-polyalcohol-(1S,9S)-1-(glycyl-glycyl-L-phenylalanyl-glycylamino)-9-ethyl-5-fluoro-2,3-dihydro-9-hydroxy-4-methyl-1H,12H-benzo[de]pyrano[3′,4′:6,7] indolizino[1,2-b]quinoline-10,13(9H,15H)-dione [Compound B]”, the “Other organs MI (Metastatic Incidence)” value [3, 16] was 1, the “Other organs MI (Metastatic Incidence)” value [3, 7] was 0 and the “Liver MI (Metastatic Incidence)” value [3, 16] was 1. For the same compound, the “Lung MI (Metastatic Incidence)” value [3, 16] was 1, the “Lymph node MI (Metastatic Incidence)” value [3, 16] was 6 and the “Number of animals with metastasis” value [3, 16] was 6. For the same compound, the “Liver MI (Metastatic Incidence)” value [3, 7] was 0, the “Lung MI (Metastatic Incidence)” value [3, 7] was 0 and the “Lymph node MI (Metastatic Incidence)” value [3, 7] was 0. For the same compound, the “Number of animals with metastasis” value [3, 7] was 0, the “Liver MI (Metastatic Incidence)” value [4, 17] was 0 and the “Lung MI (Metastatic Incidence)” value [4, 17] was 0. For the same compound, the “Lymph node MI (Metastatic Incidence)” value [4, 17] was 1, the “Number of animals with metastasis” value [4, 17] was 1 and the “Liver MI (Metastatic Incidence)” value [4, 11] was 0. The “Lung MI (Metastatic Incidence)” value [4, 11] was 1, the “Lymph node MI (Metastatic Incidence)” value [4, 11] was 2 and the “Number of animals with metastasis” value [4, 11] was 2.
